The term EC50 denotes the midpoint of the concentration-response curve.

Holding throughout (type): cell-based
The target in experiment [1] is T1, long form of human GPR120 (Homo sapiens, UniProt Q5NUL3).
T1 construct: host or cells: PathHunter CHO-K1 GPR120 β-Arrestin Cell Line
Briefly: Human GPR120 DiscoveRx PathHunter β-Arrestin assay, Procedure β-arrestin A. Particulars: PathHunter CHO-K1 GPR120 β-Arrestin cell line, 3000 cells per well. An excerpt: The binding of an agonist (medium/long chain fatty acids or small molecule agonists) to the G-protein-coupled receptor GPR120 activates phospholipase C, leading to release of intracellular Ca^+2 through the generation of inositol 1,4,5-trisphosphate (InsP3 or IP3). GPR120 activation can also trigger intracellular signaling via recruitment of β-Arrestin. In the present method, agonist-induced activation of the human GPR120 receptor is monitored through the use of PathHunter CHO-K1 GPR120 β-Arrestin Cell Line engineered by DiscoveRx, as detailed below. The cell lines are designed to co-express both the ProLink/Enzyme Donor (PK)-tagged GPCR and the Enzyme […] (EA)-tagged Beta-Arrestin fusion proteins. Upon GPR120 receptor stimulation/activation, the EA-tagged β-Arrestin portion is translocated to the tagged receptor, where the two enzyme fragments are brought within close proximity. Under these conditions, these fragments can interact and form an active Beta-gal enzyme complex through Enzyme Fragment Complementation (EFC). This active Beta-gal complex can enzymatically hydrolyse the substrate to produce a detectable light signal; therefore, activation as a function of agonist concentration can be expressed as an EC50 value to determine relative compound activities. This in vitro assay therefore serves to assess compound agonist activity of the GPR120.
In Procedure β-arrestin A, the cell used were PathHunter CHO-K1 GPR120 β-Arrestin Cell Line, expressing the long form of human GPR120 (Genbank accession number NM_181745), with 3000 cells per well.
The selected CHO-K1 GPR120 β-Arrestin cells were cultured in Ham's F12 media supplemented with 10% fetal bovine serum (FBS), 1% Glutamine, 1×p/s, 800 μg/ml G418 and 300 μg/ml Hygromycin B (for selection). Cell stocks were maintained and grown in a sub-confluent state using standard cell culture procedures. The day before the experiment, the cells were harvested with non-enzymatic cell dissociation buffer and re-suspended in complete growth media at the desired concentration. A Corning 384-plate was then seeded with the proper number of cells in a volume of 25 μL, per well. The seeded plates were incubated overnight at 37° C.
On the day of the experiment, the Assay Buffer containing (a) HBSS with Ca^++ and Mg^++, (b) 20 mM HEPES, and (c) 0.1% BSA stabilizer (pH 7.4) was prepared. The growth medium was gently removed from the cell plates and 20 μL of Assay Buffer added to each well. The plate was then incubated at 37° C. for 60 mins. Test compounds were serially diluted in Assay Buffer to desired concentrations (more particularly, to one or more of the following μM concentrations: 25 μM, 12.5 μM, 6.25 μM, 3.125 μM, 1.562 μM, 0.781 μM, 0.391 μM, 0.195 μM, 0.098 μM, 0.049 μM, 0.024 μM, 0.012 μM). Five μl of compound dilution was then added to each well and the plate incubated at 37° C. for 90 mins. The detection reagents were prepared according to the manufacture's instruction. Twelve μL of the detection reagents were added to each well and the plate incubated at room temperature for 60 mins.
The plates were read on an EnVision instrument, using Protocol name: Luminescence, Plate type: 384 Costar, Measurement height: 3 mm, Measurement time: 1 s, Aperture: 384 Plate aperture. The % activity relative to the positive control was calculated using the following equation:
The % Activity values were plotted versus the concentration of test compound and fitted to a sigmoidal dose-response curve with a Hill slope=1 (fixed value) using nonlinear regression with GraphPad Prism 5.0 to calculate the EC50 values. The Fitting Equation was: Y=Bottom+(Top−Bottom)/(1+10^((LogEC50−X)*HillSlope)), where X is the log of the concentration and Y is the response.

Experiment [2] deals with T2, Human GPR120 short form (Homo sapiens, UniProt Q5NUL3).
T2 construct: expressed in transfected cells
T2 sequence (Q5NUL3 1-361): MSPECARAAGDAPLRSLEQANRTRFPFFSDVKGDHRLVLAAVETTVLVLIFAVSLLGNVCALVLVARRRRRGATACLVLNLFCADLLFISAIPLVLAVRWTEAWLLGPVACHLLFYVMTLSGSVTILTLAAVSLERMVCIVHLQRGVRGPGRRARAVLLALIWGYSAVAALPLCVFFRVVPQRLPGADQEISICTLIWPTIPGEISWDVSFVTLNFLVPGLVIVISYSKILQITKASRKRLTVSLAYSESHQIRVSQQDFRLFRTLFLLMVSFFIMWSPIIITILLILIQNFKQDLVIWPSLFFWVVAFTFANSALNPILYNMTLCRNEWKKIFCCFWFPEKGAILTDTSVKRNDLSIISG
The experiment can be described thus: Human GPR120 calcium flux assay, Procedure Calcium A. Particulars: HEK-293 cells expressing human GPR120 short form, 2500 cells/well, FLIPR. An excerpt: (§1) This in vitro assay serves to assess test compound agonist activity against the short splice variant (SVS with Accession number NM_001195755.1 confirmed by sequencing data) of the GPR120 receptor. The Human Short splice variant #2 (NM_001195755.1) is missing an in-frame coding exon compared to variant 1 (the Human Long splice variant NM_181745.3), resulting in a shorter isoform (GPR120-S) lacking a 16 aa protein segment compared to isoform GPR120-L. The assay platform utilizes HEK-293 cells stably transfected to express the Human GPR120 short form. These cells are first loaded with the Ca^+2 sensitive dye, Fluo-4 NW. Upon stimulation, intracellular released Ca^+2 can bind to the dye and alter its fluorescence intensity. This increase in fluorescence signal, and thus the flux in intracellular [Ca^2+], is detected and quantitated by fluorescence imaging using a FLIPR reader. The effect of the agonist is measured as a function of concentration and used to calculate an EC50 based upon a response curve.
In this procedure 2500 cells/well were employed.
(§2) A Human GPR120 clone (Genbank accession number NM_001195755.1) was placed into the pcDNA3.1 mammalian expression vector carrying the neomycin resistance gene. A stable mammalian cell was generated by placing the above clone into a HEK293 background. Clonal cells responding to long chain fatty acids had expression levels of GPR120 confirmed by RT-qPCR. Human HEK-GPR120 cells were cultured in Dulbecco's Modified Eagle's Medium (DMEM)/F12 medium supplemented with 10% fetal bovine serum (FBS), 1% L-Glutamine and 1% penicillin/streptomycin and 0.5 mg/ml G-418. Cells were split 2 times a week to keep the cells in the log-phase growth.
(§3) In preparation for the assay, HEK cells stably transfected with Human GPR120 (2.5K cells per well in 25 uL growth medium) were seeded into 384-well plates and then incubated overnight (37° C., 5% CO2). The next day, the media was changed to 20 μl assay buffer and the cell starved for 1 h at 37° C. The dye loading solution (2× dye) was prepared using 10 ml assay buffer, 100 μl of 250 mM probenecid, 1 bottle of Component A, and 20 μl of dye in DMSO. Twenty μl of the 2× dye loading buffer was then added to each well. The plates were incubated at 37° C. for 30 min, then at room temperature for an additional 15 minutes, before performing the assay on FLIPR.
(§4) Test compounds were prepared in assay buffer (2 μl of test compound+198 μl assay buffer, final DMSO in assay plate is 0.2%) at the desired concentration, more particularly at 100 μM, 50 μM, 25 μM, 12.5 μM, 6.25 μM, 3.125 μM, 1.562 μM, 0.781 μM, 0.391 μM, 0.195 μM, 0.098 μM, 0.049 μM, 0.024 μM and 0.012 μM.
(§5) The assay was performed on a FLIPR plate reader using the following parameters. Baseline was read for 10 seconds at 1 sec intervals. The program was set to transfer 10 μL of ligand from compound plate to cell plate after baseline reading. Aspiration was executed at: 10 μl/sec speed, 4.6 μl height; Dispensing was executed at: 30 μl/sec speed, 45 μl height. After compound addition, each well was read for 300 sec, with measurements collected at 1 sec intervals.
(§6) The kinetic data from the FLIPR was based upon a 5 minute window for data collection. The fluorescence of each sample well was used for individual calculations of a normalized RFU value, which was defined as maximum response minus the minimum response. The normalized fluorescence reading (RFU) was calculated as follows: RFU=Fmax−Fmin
(§7) The data were fitted to a sigmoidal dose-response curve with a variable Hill slope (<2) using nonlinear regression with GraphPad Prism 5.0 to calculate the EC50 values. The Fitting Equation was: Y=Bottom+(Top−Bottom)/(1+10^((LogEC50−X)*HillSlope)), where X is the log of the concentration and Y is the response.
For orientation: A change in cytosolic calcium serves as a functional read-out for many receptors and channels.

Experiment [3] deals with T2, Human GPR120 short form. The experiment can be described thus: Human GPR120 calcium flux assay, Procedure Calcium B. Particulars: HEK-293 cells expressing human GPR120 short form, 4200 cells/well, FLIPR.
Text: as §1
In this procedure 4200 cells/well were employed.
as §2, §3, §4, §5, §6, §7

T1 sequence (Q5NUL3 1-377 isoform Q5NUL3-1): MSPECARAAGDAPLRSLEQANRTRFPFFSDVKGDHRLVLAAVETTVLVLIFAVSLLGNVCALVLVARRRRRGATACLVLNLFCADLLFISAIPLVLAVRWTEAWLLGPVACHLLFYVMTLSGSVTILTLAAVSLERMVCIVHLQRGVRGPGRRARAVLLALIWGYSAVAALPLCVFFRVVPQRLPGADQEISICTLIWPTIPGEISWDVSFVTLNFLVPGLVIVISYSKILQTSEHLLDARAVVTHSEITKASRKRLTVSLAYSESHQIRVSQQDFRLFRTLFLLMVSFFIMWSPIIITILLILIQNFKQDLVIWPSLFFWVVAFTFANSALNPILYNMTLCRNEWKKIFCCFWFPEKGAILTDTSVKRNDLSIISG
T1 sequence (P32121 whole entry partner): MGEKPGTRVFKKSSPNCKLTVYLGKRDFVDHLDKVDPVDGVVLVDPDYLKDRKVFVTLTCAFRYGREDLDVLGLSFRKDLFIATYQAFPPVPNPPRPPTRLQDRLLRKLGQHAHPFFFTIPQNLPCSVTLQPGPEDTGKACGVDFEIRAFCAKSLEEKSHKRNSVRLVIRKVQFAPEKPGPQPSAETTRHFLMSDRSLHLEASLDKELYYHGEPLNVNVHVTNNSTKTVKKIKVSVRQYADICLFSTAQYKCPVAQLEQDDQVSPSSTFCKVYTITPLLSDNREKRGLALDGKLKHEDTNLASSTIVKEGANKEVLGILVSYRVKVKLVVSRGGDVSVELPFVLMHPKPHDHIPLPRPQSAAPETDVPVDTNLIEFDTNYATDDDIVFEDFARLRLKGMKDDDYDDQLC

In the case of `COc1ccc(-n2ccc(C(F)(F)F)c2COc2c(F)cc(CCCO)cc2F)cc1` [Compound 31, 3-(3,5-Difluoro-4-{[1-(4-methoxyphenyl)-3-(trifluoromethyl)-1H-pyrrol-2-yl]methoxy}phenyl)propan-1-ol], the concentration giving a half-maximal response (EC50) in experiment [1] turned out to be 61 nM; in experiment [2], 222 nM; in experiment [3], 67 nM.
The matching figures for `COc1ccc(-n2ccc(C(F)(F)F)c2COc2ccc(CCCO)c(F)c2F)cc1` [Compound 27, 3-(2,3-Difluoro-4-{[1-(4-methoxyphenyl)-3-(trifluoromethyl)-1H-pyrrol-2-yl]methoxy}phenyl)propan-1-ol]: 46 nM, 218 nM and 54 nM.
For `Cc1ccc(-n2ccc(C(F)(F)F)c2COc2ccc(CCC(=O)O)c(F)c2F)cc1` [Compound 42, 3-(2,3-difluoro-4-[[1-(4-methylphenyl)-3-(trifluoromethyl)-1H-pyrrol-2-yl]methoxy]phenyl)propanoic acid] the same measures were 293 nM, 810 nM and 84 nM.
For `CCc1ccc(-n2ccc(C(F)(F)F)c2COc2ccc(CCC(=O)O)c(F)c2F)cn1` [Compound 58, 3-(4-[[1-(6-ethylpyridin-3-yl)-3-(trifluoromethyl)-1H-pyrrol-2-yl]methoxy]-2,3-difluorophenyl)propanoic acid] the same measures were 932 nM, 882 nM and 162 nM.
Take `Cc1ccc(-n2ccc(C(F)(F)F)c2COc2ccc(CCCO)c(F)c2F)cn1` [Compound 47, 3-(2,3-difluoro-4-[[1-(6-methylpyridin-3-yl)-3-(trifluoromethyl)-1H-pyrrol-2-yl]methoxy]phenyl)propan-1-ol trifluoroacetic acid]: the EC50 turned out to be 241 nM in experiment [1], 375 nM in experiment [2] and 66 nM in experiment [3].
For `OCCCc1cc(F)c(OCc2c(C(F)(F)F)ccn2-c2ccccc2)c(F)c1` [Compound 35, 3-(3,5-difluoro-4-[[1-phenyl-3-(trifluoromethyl)-1H-pyrrol-2-yl]methoxy]phenyl)propan-1-ol] the same measures were 201 nM, 507 nM and 63 nM.
For `Cc1c(CCC(=O)O)ccc(OCc2cccn2-c2ccc(Br)cc2)c1C` [Compound 3, 3-(4-{[1-(4-Bromophenyl)-1H-pyrrol-2-yl]methoxy}-2,3-dimethylphenyl)propanoic acid] the same measures were 592 nM, 1040 nM and 164 nM.
As for `COc1ccc(-n2ccc(C(F)(F)F)c2COc2c(F)cc(CCC(=O)O)cc2F)cc1` [Compound 28, 3-(3,5-Difluoro-4-{[1-(4-methoxyphenyl)-3-(trifluoromethyl)-1H-pyrrol-2-yl]methoxy}phenyl)propanoic acid], the EC50 in experiment [1] turned out to be 221 nM; in experiment [2], 641 nM; in experiment [3] it was 108 nM.
For `O=C(O)CCc1ccc(OCc2c(C(F)(F)F)ccn2-c2ccc(Cl)cc2)c(F)c1F` [Compound 16, 3-(4-{[1-(4-Chlorophenyl)-3-(trifluoromethyl)-1H-pyrrol-2-yl]methoxy}-2,3-difluorophenyl)propanoic acid] the same measures were 639 nM, 836 nM and 91 nM.
For `Cc1ccc(-n2ccc(C(F)(F)F)c2COc2ccc(CCC(=O)O)c(C)c2C)cc1` [Compound 43, 3-(2,3-dimethyl-4-[[1-(4-methylphenyl)-3-(trifluoromethyl)-1H-pyrrol-2-yl]methoxy]phenyl)propanoic acid] the same measures were 359 nM, 558 nM and 63 nM.
Turning to `Cc1ccc(-n2ccc(C(F)(F)F)c2COc2c(F)cc(CCCO)cc2F)cn1` [Compound 48, 3-(3,5-difluoro-4-((1-(6-methylpyridin-3-yl)-3-(trifluoromethyl)-1H-pyrrol-2-yl)methoxy)phenyl)propan-1-ol trifluoroacetic acid], the figures for the EC50 in experiment [1], in experiment [2] and in experiment [3] were 98 nM, 98 nM and 30 nM, respectively.
